Assay results from patent US11198713B2, “Agents modulating beta-catenin functions and methods thereof” (FOG PHARMACEUTICALS, INC., priority 2017, dated 2021).
Numbered stars: 1 amine (or outer) side, 2 acyl side, 3 side chain; on linkers, the order of the positions; unused ones are H or OH. Bridge positions count the residues as written; N and C are the ends. Square brackets hold non-standard residues; d marks the D form. Peptide text beside a SMILES is read from it. X12 = CN(CC=[*:3])CCC[C@@](C)(N[*:1])C(=O)[*:2]; X10 = CN(CC=[*:3])C[C@@](C)(N[*:1])C(=O)[*:2]; X11 = CN(CC=[*:3])C[C@](C)(N[*:1])C(=O)[*:2]; X6 = CN(CC=[*:3])CC[C@](C)(N[*:1])C(=O)[*:2]; X13 = C[C@@](CCCCC=[*:3])(N[*:1])C(=O)[*:2]; X5 = C[C@](CCCCCC=[*:3])(N[*:1])C(=O)[*:2]; X7 = C[C@](CCCCC=[*:3])(N[*:1])C(=O)[*:2]; S8 = C=CCCCCCC[C@](C)(N)C(=O)O; S5 = C=CCCC[C@](C)(N)C(=O)O

Target: T1, full-length beta-catenin (Axin site) (Homo sapiens, UniProt P35222)
T1 construct: 15 nM full-length beta-catenin, 20 nM FITC labeled peptide in buffer
T1 sequence (P35222 1-781): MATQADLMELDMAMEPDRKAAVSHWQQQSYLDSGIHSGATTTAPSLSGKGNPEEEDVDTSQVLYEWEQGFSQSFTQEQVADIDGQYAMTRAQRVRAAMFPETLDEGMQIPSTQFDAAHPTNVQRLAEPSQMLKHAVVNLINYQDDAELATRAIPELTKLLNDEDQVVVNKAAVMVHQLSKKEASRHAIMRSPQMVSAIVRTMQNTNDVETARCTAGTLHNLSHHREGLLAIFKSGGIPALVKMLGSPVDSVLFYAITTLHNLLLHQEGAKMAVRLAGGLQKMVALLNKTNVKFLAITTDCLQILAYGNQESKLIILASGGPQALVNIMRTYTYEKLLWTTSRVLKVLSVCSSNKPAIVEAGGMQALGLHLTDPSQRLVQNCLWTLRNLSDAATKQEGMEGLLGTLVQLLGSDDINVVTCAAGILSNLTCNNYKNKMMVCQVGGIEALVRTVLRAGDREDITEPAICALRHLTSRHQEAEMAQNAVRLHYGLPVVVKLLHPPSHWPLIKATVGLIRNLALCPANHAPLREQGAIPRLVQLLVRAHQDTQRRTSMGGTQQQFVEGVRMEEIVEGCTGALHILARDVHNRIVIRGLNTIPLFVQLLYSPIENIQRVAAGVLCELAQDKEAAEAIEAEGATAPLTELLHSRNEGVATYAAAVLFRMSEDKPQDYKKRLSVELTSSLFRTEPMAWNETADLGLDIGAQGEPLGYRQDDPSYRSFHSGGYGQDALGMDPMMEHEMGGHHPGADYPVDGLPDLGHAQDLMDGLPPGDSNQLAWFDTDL
Test: Competition fluorescence polarization assay (Axin site probe)
Assay type: binding
Settings: competition fluorescence polarization, Table 2; read-out: in vitro FP EC50
Summary of the method: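 Competition FP: 15 nM full-length β-catenin pre-incubated 5 min with 20 nM FITC-labelled stapled Axin-site peptide, then titrated peptide added (3-fold series from 5 μM) for 15 min in the dark. Buffer 50 mM Tris pH 8.0, 250 mM NaCl, 2% glycerol, 0.5 mM EDTA; duplicate reads.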

SMILES | EC50 [nM]
CC[C@H](C)[C@@H]1NC(=O)[C@H](Cc2c[nH]cn2)NC(=O)[C@H](C)NC(=O)[C@H](CC(N)=O)NC(=O)[C@H](CC(C)C)NC(=O)[C@H]([C@@H](C)CC)NC(=O)[C@](C)(NC(=O)[C@H](C)NC(C)=O)CCCCCCC=CCOC(=O)N2CC[C@@](C(=O)N[C@@H](CCCNC(=N)N)C(=O)N[C@H](C(=O)N[C@@H](Cc3c[nH]c4ccccc34)C(N)=O)C(C)C)(C2)NC1=O [FP0218c, Ac-A-R8-I-L-N-A-H-I-MB-R-V-W-NH2] | 100 to 500
CC[C@H](C)[C@@H]1NC(=O)[C@H](Cc2c[nH]cn2)NC(=O)[C@H](C)NC(=O)[C@H]([C@@H](C)O)NC(=O)[C@H](CC(C)C)NC(=O)[C@H]([C@@H](C)CC)NC(=O)[C@](C)(NC(=O)[C@H](C)NC(C)=O)CCCCCCC=CCOC(=O)N2CC[C@@](C(=O)N[C@@H](CCCNC(=N)N)C(=O)N[C@H](C(=O)N[C@@H](Cc3c[nH]c4ccccc34)C(N)=O)C(C)C)(C2)NC1=O [FP0219c, Ac-A-R8-I-L-T-A-H-I-MB-R-V-W-NH2] | 100 to 500
CC[C@H](C)[C@@H]1NC(=O)[C@H](Cc2c[nH]cn2)NC(=O)[C@H](C)NC(=O)[C@H](CC(=O)O)NC(=O)[C@H](CC(C)C)NC(=O)[C@H]([C@@H](C)CC)NC(=O)[C@](C)(NC(=O)[C@H](C)NC(C)=O)CN(C)CC=CCCCCCC[C@@](C)(C(=O)N[C@@H](CCCNC(=N)N)C(=O)N[C@H](C(=O)N[C@@H](Cc2c[nH]c3ccccc23)C(N)=O)C(C)C)NC1=O [FP0335a, Ac-A-ME-I-L-D-A-H-I-S8-R-V-W-NH2] (Ac-A[X10]ILDAHI[S8]RVW-NH2; staple 2-9) | 100 to 500
CC[C@H](C)[C@@H]1NC(=O)[C@H](Cc2c[nH]cn2)NC(=O)[C@H](C)NC(=O)[C@H](CC(=O)O)NC(=O)[C@H](CC(C)C)NC(=O)[C@H](C)NC(=O)[C@](C)(NC(=O)[C@H](C)NC(C)=O)CCCCCCC=CCOC(=O)N2CC[C@@](C(=O)N[C@@H](CCCNC(=N)N)C(=O)N[C@H](C(=O)N[C@@H](Cc3c[nH]c4ccccc34)C(N)=O)C(C)C)(C2)NC1=O [FP0405c, Ac-A-R8-A-L-D-A-H-I-MB-R-V-W-NH2] | 500 to 5000
CC[C@H](C)[C@@H]1NC(=O)[C@H](Cc2c[nH]cn2)NC(=O)[C@H](C)NC(=O)[C@H](CC(=O)O)NC(=O)[C@H](C)NC(=O)[C@H]([C@@H](C)CC)NC(=O)[C@](C)(NC(=O)[C@H](C)NC(C)=O)CCCCCCC=CCOC(=O)N2CC[C@@](C(=O)N[C@@H](CCCNC(=N)N)C(=O)N[C@H](C(=O)N[C@@H](Cc3c[nH]c4ccccc34)C(N)=O)C(C)C)(C2)NC1=O [FP0406c, Ac-A-R8-I-A-D-A-H-I-MB-R-V-W-NH2] | 100 to 500
CC[C@H](C)[C@@H]1NC(=O)[C@H](Cc2c[nH]cn2)NC(=O)[C@H](C)NC(=O)[C@H](C)NC(=O)[C@H](CC(C)C)NC(=O)[C@H]([C@@H](C)CC)NC(=O)[C@](C)(NC(=O)[C@H](C)NC(C)=O)CCCCCCC=CCOC(=O)N2CC[C@@](C(=O)N[C@@H](CCCNC(=N)N)C(=O)N[C@H](C(=O)N[C@@H](Cc3c[nH]c4ccccc34)C(N)=O)C(C)C)(C2)NC1=O [FP0407c, Ac-A-R8-I-L-A-A-H-I-MB-R-V-W-NH2] | 500 to 5000
CC[C@H](C)[C@@H]1NC(=O)[C@H](C)NC(=O)[C@H](C)NC(=O)[C@H](CC(=O)O)NC(=O)[C@H](CC(C)C)NC(=O)[C@H]([C@@H](C)CC)NC(=O)[C@](C)(NC(=O)[C@H](C)NC(C)=O)CCCCCCC=CCOC(=O)N2CC[C@@](C(=O)N[C@@H](CCCNC(=N)N)C(=O)N[C@H](C(=O)N[C@@H](Cc3c[nH]c4ccccc34)C(N)=O)C(C)C)(C2)NC1=O [FP0408c, Ac-A-R8-I-L-D-A-A-I-MB-R-V-W-NH2] | > 5000
CC[C@H](C)[C@@H]1NC(=O)[C@](C)(NC(=O)[C@H](C)NC(C)=O)CCCCCCC=CCOC(=O)N2CC[C@@](C(=O)N[C@@H](CCCNC(=N)N)C(=O)N[C@H](C(=O)N[C@@H](Cc3c[nH]c4ccccc34)C(N)=O)C(C)C)(C2)NC(=O)[C@H](C)NC(=O)[C@H](Cc2c[nH]cn2)NC(=O)[C@H](C)NC(=O)[C@H](CC(=O)O)NC(=O)[C@H](CC(C)C)NC1=O [FP0409c, Ac-A-R8-I-L-D-A-H-A-MB-R-V-W-NH2] | > 5000
CC[C@H](C)[C@@H]1NC(=O)[C@H](Cc2c[nH]cn2)NC(=O)[C@H](C)NC(=O)[C@H](CC(=O)O)NC(=O)[C@H](CC(C)C)NC(=O)[C@H]([C@@H](C)CC)NC(=O)[C@](C)(NC(=O)[C@H](C)NC(C)=O)CCCCCCC=CCOC(=O)N2CC[C@@](C(=O)N[C@@H](C)C(=O)N[C@H](C(=O)N[C@@H](Cc3c[nH]c4ccccc34)C(N)=O)C(C)C)(C2)NC1=O [FP0410c, Ac-A-R8-I-L-D-A-H-I-MB-A-V-W-NH2] | 100 to 500
CC[C@H](C)[C@@H]1NC(=O)[C@H](Cc2c[nH]cn2)NC(=O)[C@H](C)NC(=O)[C@H](CC(=O)O)NC(=O)[C@H](CC(C)C)NC(=O)[C@H]([C@@H](C)CC)NC(=O)[C@](C)(NC(=O)[C@H](C)NC(C)=O)CCCCCC=CCN(C)C[C@@](C)(C(=O)N[C@@H](CCCNC(=N)N)C(=O)N[C@H](C(=O)N[C@@H](Cc2c[nH]c3ccccc23)C(N)=O)C(C)C)NC1=O [FP0495a, Ac-A-R7-I-L-D-A-H-I-MD-R-V-W-NH2] (Ac-A[X5]ILDAHI[X11]RVW-NH2; staple 2-9) | 500 to 5000
CC[C@H](C)[C@@H]1NC(=O)[C@H](Cc2c[nH]cn2)NC(=O)[C@H](C)NC(=O)[C@H](CC(=O)O)NC(=O)[C@H](CC(C)C)NC(=O)[C@H]([C@@H](C)CC)NC(=O)[C@](C)(NC(=O)[C@H](C)NC(C)=O)CCCCCC=CCOC(=O)N(C)C[C@@](C)(C(=O)N[C@@H](CCCNC(=N)N)C(=O)N[C@H](C(=O)N[C@@H](Cc2c[nH]c3ccccc23)C(N)=O)C(C)C)NC1=O [FP0495c, Ac-A-R7-I-L-D-A-H-I-MD-R-V-W-NH2] | 100 to 500
CC[C@H](C)[C@@H]1NC(=O)[C@H](Cc2c[nH]cn2)NC(=O)[C@H](C)NC(=O)[C@H](CC(=O)O)NC(=O)[C@H](CC(C)C)NC(=O)[C@H]([C@@H](C)CC)NC(=O)[C@](C)(NC(=O)[C@H](C)NC(C)=O)CCCC=CCOC(=O)N(C)CC[C@@](C)(C(=O)N[C@@H](CCCNC(=N)N)C(=O)N[C@H](C(=O)N[C@@H](Cc2c[nH]c3ccccc23)C(N)=O)C(C)C)NC1=O [FP0501c, Ac-A-R5-I-L-D-A-H-I-MF-R-V-W-NH2] | 100 to 500
CC[C@H](C)[C@@H]1NC(=O)[C@H](Cc2c[nH]cn2)NC(=O)[C@H](C)NC(=O)[C@H](CC(=O)O)NC(=O)[C@H](CC(C)C)NC(=O)[C@H]([C@@H](C)CC)NC(=O)[C@](C)(NC(=O)[C@H](C)NC(C)=O)CCCCC=CCN(C)CC[C@@](C)(C(=O)N[C@@H](CCCNC(=N)N)C(=O)N[C@H](C(=O)N[C@@H](Cc2c[nH]c3ccccc23)C(N)=O)C(C)C)NC1=O [FP0502a, Ac-A-R6-I-L-D-A-H-I-MF-R-V-W-NH2] (Ac-A[X7]ILDAHI[X6]RVW-NH2; staple 2-9) | 500 to 5000
CC[C@H](C)[C@@H]1NC(=O)[C@H](Cc2c[nH]cn2)NC(=O)[C@H](C)NC(=O)[C@H](CC(=O)O)NC(=O)[C@H](CC(C)C)NC(=O)[C@H]([C@@H](C)CC)NC(=O)[C@](C)(NC(=O)[C@H](C)NC(C)=O)CCCN(C)CC=CCCC[C@@](C)(C(=O)N[C@@H](CCCNC(=N)N)C(=O)N[C@H](C(=O)N[C@@H](Cc2c[nH]c3ccccc23)C(N)=O)C(C)C)NC1=O [FP0506a, Ac-A-MI-I-L-D-A-H-I-S5-R-V-W-NH2] (Ac-A[X12]ILDAHI[S5]RVW-NH2; staple 2-9) | 500 to 5000
CC[C@H](C)[C@@H]1NC(=O)[C@H](Cc2c[nH]cn2)NC(=O)[C@H](C)NC(=O)[C@H](CC(=O)O)NC(=O)[C@H](CC(C)C)NC(=O)[C@H]([C@@H](C)CC)NC(=O)[C@](C)(NC(=O)[C@H](C)NC(C)=O)CCCN(C)CC=CCCCC[C@@](C)(C(=O)N[C@@H](CCCNC(=N)N)C(=O)N[C@H](C(=O)N[C@@H](Cc2c[nH]c3ccccc23)C(N)=O)C(C)C)NC1=O [FP0507a, Ac-A-MI-I-L-D-A-H-I-S6-R-V-W-NH2] (Ac-A[X12]ILDAHI[X13]RVW-NH2; staple 2-9) | < 100
CC[C@H](C)[C@@H]1NC(=O)[C@H](Cc2c[nH]cn2)NC(=O)[C@H](C)NC(=O)[C@H](CC(=O)O)NC(=O)[C@H](CC(C)C)NC(=O)[C@H]([C@@H](C)CC)NC(=O)[C@](C)(NC(=O)[C@H](C)NC(C)=O)CCCN(C)C(=O)OCC=CCCCC[C@@](C)(C(=O)N[C@@H](CCCNC(=N)N)C(=O)N[C@H](C(=O)N[C@@H](Cc2c[nH]c3ccccc23)C(N)=O)C(C)C)NC1=O [FP0507c, Ac-A-MI-I-L-D-A-H-I-S6-R-V-W-NH2] | 500 to 5000
CC[C@H](C)[C@@H]1NC(=O)[C@H](Cc2c[nH]cn2)NC(=O)[C@H](C)NC(=O)[C@H](CC(=O)O)NC(=O)[C@H](CC(C)C)NC(=O)[C@H]([C@@H](C)CC)NC(=O)[C@](C)(NC(=O)[C@H](C)NC(C)=O)CCCCCC=CCOC(=O)N2CC(C(=O)N[C@@H](CCCNC(=N)N)C(=O)N[C@H](C(=O)N[C@@H](Cc3c[nH]c4ccccc34)C(N)=O)C(C)C)(C2)NC1=O [FP0516c, Ac-A-R7-I-L-D-A-H-I-MA-R-V-W-NH2] | 100 to 500
